# Source: US20050255595A1, “Genetically modified non-human mammal cells, procedure for their production and use in toxicity tests” (priority 2002, published 2005)
# Where two headings read alike, the source gives them in different places.
# Assays:
# [1] = tested on: primary hepatocytes (PHGH); experiment: cellular survival of PHGH, Trypan Blue exclusion; format: cell-based, mice; parameters: % cellular survival, PHGH 1 + 24 h / % cellular survival, PHGH 5 + 24 / % vitality of the cells, PHGH 1 + 24 h / % vitality of the cells, PHGH 5 + 24 h: unit of the concentration uncertain; settings: for % vitality of the cells, PHGH 1 + 24 h / % cellular survival, PHGH 1 + 24 h: 1 h treatment + 24 h normal medium; for % vitality of the cells, PHGH 5 + 24 h / % cellular survival, PHGH 5 + 24: 5 h treatment + 24 h normal medium
# Excerpt: (§1) This different behaviour is explained by the greater sensitivity to the toxicant of the PHGH with respect to the MMH/GH5 as shown by analysis of the cellular vitality performed with the Trypan Blue method (FIG. 1, graph B). […] Therefore the greater resistance of the cells MMH/GH/5 to the toxicants constitutes another evident advantage as it permits the exclusion of false negatives in which the non-release of hGH, due to cellular death, is interpreted as non-toxicity of the compound. When the supernatant is collected after 5 hours of treatment followed by 24 hours of culture with normal medium (FIG. 1 graph C) the PHGHs respond, at the lowest concentrations of the two toxicants, with high levels of secretion of hGH and, at the highest concentrations, with low levels of secretion of hGH (lower cellular survival, graph D).
# (§2) In table 3 the cellular survival percentage was determined with the Trypan Blue exclusion method. […]
# (§3) For treatment, the two types of cells were treated with different concentrations of the compounds for 1 or 5 hours and then with normal medium for a further 24 hours. The effects of the treatment were assessed as described previously for the inorganic toxicants.
# [2] = tested on: MMH/GH5 cells; experiment: cellular survival of MMH/GH5, Trypan Blue exclusion; format: cell-based, mice; parameters: % cellular survival, MMHGH/5 1 + 24 h / % cellular survival, MMHGH/5 5 + 24 / % vitality of the cells, MMH/GH 1 + 24 h / % vitality of the cells, MMH/GH 5 + 24 h: unit of the concentration uncertain; settings: for % vitality of the cells, MMH/GH 1 + 24 h / % cellular survival, MMHGH/5 1 + 24 h: 1 h treatment + 24 h normal medium; for % vitality of the cells, MMH/GH 5 + 24 h / % cellular survival, MMHGH/5 5 + 24: 5 h treatment + 24 h normal medium
# Excerpt: as §1, §2, §3
# [3] = tested on: MMH/GH5 cells (Clone 5); parameters: hGH secreted, MMHGH/5 1 + 24 h / hGH secreted, MMHGH/5 5 + 24 / hGH secreted, MMHGH/5 1 h / hGH secreted, MMHGH/5 5 h: dose or concentration left out as unconfirmed
# [4] = tested on: single transgenic HPS70/hGH primary hepatocytes (PHGH); experiment: toxicity test, hGH secretion by primary transgenic hepatocytes (PHGH); format: cell-based, mice; parameters: hGH secreted, PHGH 1 h / hGH secreted, PHGH 5 h / hGH secreted, PHGH 1 + 24 h / hGH secreted, PHGH 5 + 24: unit of the concentration uncertain
# Excerpt: On the basis of the results illustrated, for the further analyses, clone no. […] The response to the toxic stress of the clone MMH/GH5 was then compared with the one obtained in single transgenic HPS70/hGH primary hepatocytes (PHGH). A representative sample of the cell line derived from said clone MMH/GH5 was deposited in accordance with and for the purposes of the Treaty of Budapest on the international recognition of deposit of micro-organisms for the purposes of the patents procedure with the AID “Centro di Biotecnologie Avanzate (CBA), Interlab Cell Line Collection (ICLC)” Servizio Biotecnologie, Largo R. Benzi, 10, 16132 Genova, Italy, on Jul. 30, 2002, where it was given identification number PD 02007.
# as §2, §3
# [5] = 50 (unit uncertain), Trypan Blue (Table 4)
# [6] = 100 (unit uncertain), Trypan Blue
# [7] = 25 (unit uncertain), Trypan Blue
# [8] = 50 (unit uncertain), Trypan Blue (Table 3)
# [9] = 0.5 (unit uncertain), Trypan Blue
# [10] = 1 (unit uncertain), Trypan Blue
smiles,measurement,setting,value
"Oc1c(Cl)c(Cl)c(O)c(Cl)c1Cl [TCHQ, TetraChloroHydroQuinone]","% vitality of the cells, PHGH 1 + 24 h",[1]; [5],50%
same,"% vitality of the cells, PHGH 5 + 24 h",[1]; [5],60%
same,"% vitality of the cells, PHGH 1 + 24 h",[1]; [6],0%
same,"% vitality of the cells, PHGH 5 + 24 h",[1]; [6],0%
same,"% vitality of the cells, MMH/GH 1 + 24 h",[2]; [5],50%
same,"% vitality of the cells, MMH/GH 5 + 24 h",[2]; [5],30%
same,"% vitality of the cells, MMH/GH 1 + 24 h",[2]; [6],10%
same,"% vitality of the cells, MMH/GH 5 + 24 h",[2]; [6],0%
same,response in MMH/GH5,"[3]; compared with PCP, words",stronger response
same,response in PHGH,"[4]; compared with PCP, words",stronger response
CCCCC[C@H](O)/C=C/[C@H]1C=CC(=O)[C@@H]1C/C=C\CCCC(=O)O [PGA2],"% cellular survival, PHGH 1 + 24 h",[1]; [7],90%
same,"% cellular survival, PHGH 5 + 24",[1]; [7],90%
same,"% cellular survival, PHGH 1 + 24 h",[1]; [8],90%
same,"% cellular survival, PHGH 5 + 24",[1]; [8],90%
same,"% cellular survival, MMHGH/5 1 + 24 h",[2]; [7],90%
same,"% cellular survival, MMHGH/5 5 + 24",[2]; [7],90%
same,"% cellular survival, MMHGH/5 1 + 24 h",[2]; [8],90%
same,"% cellular survival, MMHGH/5 5 + 24",[2]; [8],90%
same,"hGH secreted, MMHGH/5 1 h","[3]; 25, 1 h treatment",1 pg hGH/10^6 cells
same,"hGH secreted, MMHGH/5 1 + 24 h","[3]; 25, 1 h treatment + 24 h normal medium",2 pg hGH/10^6 cells
same,"hGH secreted, MMHGH/5 5 h","[3]; 25, 5 h treatment",53 pg hGH/10^6 cells
same,"hGH secreted, MMHGH/5 5 + 24","[3]; 25, 5 h treatment + 24 h normal medium",0 pg hGH/10^6 cells
same,"hGH secreted, MMHGH/5 1 h","[3]; 50, 1 h treatment (Table 3)",8 pg hGH/10^6 cells
same,"hGH secreted, MMHGH/5 1 + 24 h","[3]; 50, 1 h treatment + 24 h normal medium (Table 3)",92 pg hGH/10^6 cells
same,"hGH secreted, MMHGH/5 5 h","[3]; 50, 5 h treatment (Table 3)",107 pg hGH/10^6 cells
same,"hGH secreted, MMHGH/5 5 + 24","[3]; 50, 5 h treatment + 24 h normal medium (Table 3)",0 pg hGH/10^6 cells
same,"hGH secreted, PHGH 1 h","[4]; 25 (unit uncertain), 1 h treatment",1 pg hGH/10^6 cells
same,"hGH secreted, PHGH 1 + 24 h","[4]; 25 (unit uncertain), 1 h treatment + 24 h normal medium",0 pg hGH/10^6 cells
same,"hGH secreted, PHGH 5 h","[4]; 25 (unit uncertain), 5 h treatment",56 pg hGH/10^6 cells
same,"hGH secreted, PHGH 5 + 24","[4]; 25 (unit uncertain), 5 h treatment + 24 h normal medium",10 pg hGH/10^6 cells
same,"hGH secreted, PHGH 1 h","[4]; 50 (unit uncertain), 1 h treatment (Table 3)",27 pg hGH/10^6 cells
same,"hGH secreted, PHGH 1 + 24 h","[4]; 50 (unit uncertain), 1 h treatment + 24 h normal medium (Table 3)",26 pg hGH/10^6 cells
same,"hGH secreted, PHGH 5 h","[4]; 50 (unit uncertain), 5 h treatment (Table 3)",95 pg hGH/10^6 cells
same,"hGH secreted, PHGH 5 + 24","[4]; 50 (unit uncertain), 5 h treatment + 24 h normal medium (Table 3)",37 pg hGH/10^6 cells
"C=CC(O)CCCCC (stereo not drawn) [1-Oct, 1-octene-3-ol]","% cellular survival, PHGH 1 + 24 h",[1]; [9],90%
same,"% cellular survival, PHGH 5 + 24",[1]; [9],60%
same,"% cellular survival, PHGH 1 + 24 h",[1]; [10],50%
same,"% cellular survival, PHGH 5 + 24",[1]; [10],20%
same,cellular survival,"[1]; PHGH, words, Table 3",reduced cellular survival
same,"% cellular survival, MMHGH/5 1 + 24 h",[2]; [9],90%
same,"% cellular survival, MMHGH/5 5 + 24",[2]; [9],50%
same,"% cellular survival, MMHGH/5 1 + 24 h",[2]; [10],70%
same,"% cellular survival, MMHGH/5 5 + 24",[2]; [10],20%
same,effect of the treatment (hGH secretion),"[4]; PHGH versus MMH/GH, at the end of the treatment",can be measured only in PHGH
"O=C1C=CCC1 [2-Cycl, 2-cyclopentene-1-one]","% cellular survival, PHGH 1 + 24 h",[1]; [9],90%
same,"% cellular survival, PHGH 5 + 24",[1]; [9],90%
same,"% cellular survival, PHGH 1 + 24 h",[1]; [10],80%
same,"% cellular survival, PHGH 5 + 24",[1]; [10],60%
same,"% cellular survival, MMHGH/5 1 + 24 h",[2]; [9],90%
same,"% cellular survival, MMHGH/5 5 + 24",[2]; [9],90%
same,"% cellular survival, MMHGH/5 1 + 24 h",[2]; [10],90%
same,"% cellular survival, MMHGH/5 5 + 24",[2]; [10],90%
same,response (hGH secretion) in MMH/GH5,"[3]; words, Table 3",rapid response
"Oc1c(Cl)c(Cl)c(Cl)c(Cl)c1Cl [PCP, PentaChloroPhenol]","% vitality of the cells, PHGH 1 + 24 h",[1]; [5],10%
same,"% vitality of the cells, PHGH 5 + 24 h",[1]; [5],10%
same,"% vitality of the cells, PHGH 1 + 24 h",[1]; [6],0%
same,"% vitality of the cells, PHGH 5 + 24 h",[1]; [6],0%
same,toxicity for the PHGHs,"[1]; words, Table 4",toxic
same,"% vitality of the cells, MMH/GH 1 + 24 h",[2]; [5],90%
same,"% vitality of the cells, MMH/GH 5 + 24 h",[2]; [5],70%
same,"% vitality of the cells, MMH/GH 1 + 24 h",[2]; [6],80%
same,"% vitality of the cells, MMH/GH 5 + 24 h",[2]; [6],50%
same,induction of a response in MMH/GH5,"[3]; words, Table 4",requires a prolonged exposure time to induce a response
